{"source": "BindingDB's records for patent US12065430", "about": "(Taiho Pharmaceutical, 2024)", "data": [{"biological_target": "T1, Son of sevenless homolog 1 [564-1049]/GTPase KRas [G12C] (UniProt P01116+Q07889, G12C)", "T1 construct": "564-1049", "T1 sequence (P01116 whole entry G12C)": "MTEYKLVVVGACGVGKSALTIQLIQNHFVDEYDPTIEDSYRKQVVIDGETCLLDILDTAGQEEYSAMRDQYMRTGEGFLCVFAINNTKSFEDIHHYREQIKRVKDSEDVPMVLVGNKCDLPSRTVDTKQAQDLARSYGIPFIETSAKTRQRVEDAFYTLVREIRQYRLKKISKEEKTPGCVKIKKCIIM", "T1 sequence (Q07889 564-1049)": "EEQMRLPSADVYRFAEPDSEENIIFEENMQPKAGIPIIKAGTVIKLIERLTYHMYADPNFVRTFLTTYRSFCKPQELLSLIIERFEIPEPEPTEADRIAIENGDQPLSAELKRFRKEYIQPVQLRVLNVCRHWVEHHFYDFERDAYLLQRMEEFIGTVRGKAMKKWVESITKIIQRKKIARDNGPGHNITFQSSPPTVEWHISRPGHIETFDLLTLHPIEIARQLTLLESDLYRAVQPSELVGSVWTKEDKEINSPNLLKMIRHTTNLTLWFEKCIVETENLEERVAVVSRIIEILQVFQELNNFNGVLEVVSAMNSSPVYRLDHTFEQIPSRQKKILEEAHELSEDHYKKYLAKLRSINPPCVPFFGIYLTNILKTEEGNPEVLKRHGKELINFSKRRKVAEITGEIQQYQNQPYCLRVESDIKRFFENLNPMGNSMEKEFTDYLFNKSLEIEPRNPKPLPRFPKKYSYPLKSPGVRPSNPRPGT", "assay": "Evaluation of Inhibitory Activity of Compounds on KRAS G12C Nucleotide (GDP-GTP) Exchange Reaction", "protocol": "The inhibitory activity of compounds on exchange reaction of GDP into GppNHp in Bodipy (trademark) FL-bound KRAS G12C was examined by fluorescence measurement using human recombinant KRAS G12C and SOS1 proteins.For the preparation of KRAS G12C to which Bodipy FL GDP was bound, first, […] KRAS G12C (amino acid region: 1-169) and 1 mM Bodipy FL GDP (Invitrogen, G22360) were incubated for 1 hour in a buffer (20 mM Tris-HCl (pH 7.5), 50 mM NaCl, 1 mM DTT) in ice in the presence of 2.5 mM EDTA. Thereafter, MgCl2 with a final concentration of 10 mM was added, and the mixture was incubated at room temperature for 30 minutes. The protein was allowed to pass through a NAP-5 column to remove free nucleotides and was used for compound evaluation.For the measurement of the inhibitory activity of compounds on nucleotide exchange reaction, first, the compound of the present invention was diluted stepwise with dimethyl sulfoxide (DMSO). Subsequently, a solution of the gradually diluted compound of the present invention in DMSO (the final concentration of DMSO: 5%) and KRAS G12C (25 nM) bound to Bodipy FL GDP were added to a reaction buffer (20 mM Tris-HCl (pH 7.5), 100 mM NaCl, 1 mM MgCl2, 2 mM DTT, 0.1% Tween20), followed by preincubation at 25° C. for 4 hours. Thereafter, Son of Sevenless Homolog 1 (SOS1, amino acid region: 564-1049) and GppNHp (GMPPNP, Jena Bioscience GmbH, NU-401-50) were added such that their final concentration was 100 nM and 1 μM respectively, followed by reaction for 30 minutes. The change in fluorescence intensity of Bodipy FL (excitation wavelength: 485 nm, fluorescence wavelength: 520 nm) immediately after the start of reaction and after 30 minutes from the start of reaction was standardized. The signal value for only DMSO was determined to be 0% inhibition, and the signal value for no addition of GppNHp was determined to be 100% inhibition. The compound concentration at which 50% inhibition is achieved was determined to be IC50 (nM), and was calculated.", "units": {"IC50": "nM"}, "values": [{"molecule": "C=CC(=O)N1CC(NC(=O)c2c(C#N)nc(CNc3n[nH]c4cc(Cl)c(C(C)(C)C)cc34)n2C)C1", "note": "[US12065430, Example 28]", "IC50": 70}, {"molecule": "C=CC(=O)N1CC(NC(=O)c2c(Cl)nc(CNc3n[nH]c4cc(Cl)c(C(C)C)cc34)n2C(C)C)C1", "note": "[US12065430, Example 45]", "IC50": 24}, {"molecule": "C=CC(=O)N1CC(NC(=O)c2c(I)nc(CNc3n[nH]c4cc(Cl)c(C(C)(C)C)cc34)n2C)C1", "note": "[US12065430, Example 26]", "IC50": 69}, {"molecule": "C=CC(=O)N1CC[C@@H](NC(=O)c2c(Cl)nc(CNc3n[nH]c4cc(Cl)c(C(C)(C)C)cc34)n2C)C1", "note": "[US12065430, Example 73]", "IC50": 52}, {"molecule": "C=CC(=O)N1CC(NC(=O)c2c(F)nc(CNc3n[nH]c4cc(Cl)c(C(C)(C)C)cc34)n2C)C1", "note": "[US12065430, Example 30]", "IC50": 11}, {"molecule": "C=CC(=O)N1CC(NC(=O)c2cnc(CNc3n[nH]c4cc(Cl)c(C)cc34)n2C)C1", "note": "[US12065430, Example 37]", "IC50": 5480}, {"molecule": "C=CCN1CC[C@@H](n2c(CNc3n[nH]c4cc(Cl)c(C(C)(C)C)cc34)nc(Cl)c2C(=O)NC2CN(C(=O)C=C)C2)C1", "note": "[US12065430, Example 123]", "IC50": 9}, {"molecule": "C=CC(=O)N1CC(NC(=O)c2cnc(CNc3n[nH]c4cc(Cl)c(C(C)(C)C)cc34)s2)C1", "note": "[US12065430, Example 8]", "IC50": 783}, {"molecule": "C=CC(=O)N1CC(NC(=O)c2c(C)nc(CNc3n[nH]c4cc(Cl)c(C(C)(C)C)cc34)n2CCC)C1", "note": "[US12065430, Example 19]", "IC50": 9}, {"molecule": "C=CC(=O)N1CC(NC(=O)c2cnc(C(C)Nc3n[nH]c4cc(Cl)c(C(C)(C)C)cc34)n2C)C1", "note": "(stereo not given) [US12065430, Example 4]", "IC50": 1560}, {"molecule": "C=CC(=O)N1CC(NC(=O)c2c(Cl)nc(CNc3n[nH]c4cc(Cl)c(C(C)(C)C)cc34)n2C2CN(C(=O)OC(C)(C)C)C2)C1", "note": "[US12065430, Example 106]", "IC50": 8}, {"molecule": "C=CC(=O)N1CC(NC(=O)c2c(C)nc(CNc3n[nH]c4cc(Cl)c(C(C)(C)C)cc34)n2CC)C1", "note": "[US12065430, Example 12]", "IC50": 16}, {"molecule": "C=CC(=O)N1CC(N(C)C(=O)c2c(C)nc(CNc3n[nH]c4cc(Cl)c(C(C)(C)C)cc34)n2C)C1", "note": "[US12065430, Example 49]", "IC50": 208}, {"molecule": "C=CC(=O)N1CC(NC(=O)c2cc(CNc3n[nH]c4cc(Cl)c(C(C)(C)C)cc34)nn2C)C1", "note": "[US12065430, Example 9]", "IC50": 3140}, {"molecule": "C=CC(=O)N1CC(NC(=O)c2c(CC)nc(CNc3n[nH]c4cc(Cl)c(C(C)(C)C)cc34)n2C)C1", "note": "[US12065430, Example 31]", "IC50": 642}, {"molecule": "C=CC(=O)N1CC[C@@H](N(C)C(=O)c2cnc(CNc3n[nH]c4cc(Cl)c(C(C)(C)C)cc34)n2C)C1", "note": "[US12065430, Example 77]", "IC50": 142}, {"molecule": "C=CC(=O)N1CC(NC(=O)c2c(C)nc(CNc3n[nH]c4cc(Cl)c(C(C)(C)C)cc34)n2C(C)C)C1", "note": "[US12065430, Example 13]", "IC50": 15}, {"molecule": "C=CC(=O)N1CC(NC(=O)c2c(C)nc(CNc3n[nH]c4cc(Cl)c(C(C)(C)C)cc34)n2Cc2ccccc2)C1", "note": "[US12065430, Example 15]", "IC50": 84}, {"molecule": "C=CC(=O)N1CCC(NC(=O)c2c(C)nc(CNc3n[nH]c4cc(Cl)c(C(C)(C)C)cc34)n2C)CC1", "note": "[US12065430, Example 47]", "IC50": 1730}, {"molecule": "C=CC(=O)N1CC(NC(=O)c2c(F)nc(CNc3n[nH]c4cc(Cl)c(C(C)(C)C)cc34)n2C(C)C)C1", "note": "[US12065430, Example 34]", "IC50": 13}, {"molecule": "C=CC(=O)N1C[C@H](NC(=O)c2c(C)nc(CNc3n[nH]c4cc(Cl)c(C(C)(C)C)cc34)n2C)C2(CC2)C1", "note": "[US12065430, Example 54]", "IC50": 301}, {"molecule": "C=CC(=O)N1CC(NC(=O)c2c(Br)nc(CNc3n[nH]c4cc(Cl)c(C(C)(C)C)cc34)n2C)C1", "note": "[US12065430, Example 27]", "IC50": 8}, {"molecule": "C=CC(=O)N1CC(NC(=O)c2c(C)nc(CNc3n[nH]c4cc(Cl)c(C(C)(C)C)cc34)n2CCN(C)C)C1", "note": "[US12065430, Example 16]", "IC50": 25}, {"molecule": "C=CC(=O)N1CC(NC(=O)c2c(Cl)nc(CNc3n[nH]c4cc(Cl)c(C(C)(C)C)cc34)n2C2CCN(C)CC2)C1", "note": "[US12065430, Example 103]", "IC50": 5}, {"molecule": "C=CC(=O)N1CC(NC(=O)c2c(C(F)F)nc(CNc3n[nH]c4cc(Cl)c(C(C)(C)C)cc34)n2CC2CCCN2C(C)C)C1", "note": "(stereo not given) [US12065430, Example 95]", "IC50": 44}, {"molecule": "C=CC(=O)N1C[C@@H](COC)[C@@H](NC(=O)c2c(C)nc(CNc3n[nH]c4cc(Cl)c(C(C)(C)C)cc34)n2C)C1", "note": "[US12065430, Example 67]", "IC50": 24}, {"molecule": "C=CC(=O)N1CC(NC(=O)c2c(Cl)nc(CNc3n[nH]c4cc(Cl)c(C(=C)C(F)(F)F)cc34)n2C(C)C)C1", "note": "[US12065430, Example 43]", "IC50": 809}, {"molecule": "C=CC(=O)N1CC(NC(=O)c2c(C)nc(CNc3n[nH]c4cc(Cl)c(C(C)(C)C)cc34)n2C(F)F)C1", "note": "[US12065430, Example 21]", "IC50": 58}, {"molecule": "C=CC(=O)N1CC(NC(=O)c2c(Cl)nc(CNc3n[nH]c4cc(Cl)c(C(C)(C)C)cc34)n2C2CN(C(C)=O)C2)C1", "note": "[US12065430, Example 108]", "IC50": 9}, {"molecule": "C=CC(=O)N1CC(NC(=O)c2c(Cl)nc(CNc3n[nH]c4cc(Cl)c(C(C)(C)C)cc34)n2[C@@H]2C[C@@H](C)N(CC(F)F)C2)C1", "note": "[US12065430, Example 126]", "IC50": 4}, {"molecule": "C=CC(=O)N1CC(NC(=O)c2c(C)nc(CNc3n[nH]c4cc(Cl)c(C(C)(C)C)cc34)n2CC(F)(F)F)C1", "note": "[US12065430, Example 22]", "IC50": 55}, {"molecule": "C=CC(=O)N1CC(NC(=O)c2c(Cl)nc(CNc3n[nH]c4cc(Cl)c(C(C)(C)C)cc34)n2[C@@H]2CCN(C3CC3)C2)C1", "note": "[US12065430, Example 120]", "IC50": 6}, {"molecule": "C=CC(=O)N1CC(NC(=O)c2c(Cl)nc(CNc3n[nH]c4cc(Cl)c(C(C)(C)C)cc34)n2C2CCCCC2)C1", "note": "[US12065430, Example 109]", "IC50": 23}, {"molecule": "C=CC(=O)N1CC(NC(=O)c2c(C)nc(CNc3n[nH]c4cc(Cl)c(C(C)(C)C)cc34)n2C(C)CC)C1", "note": "(stereo not given) [US12065430, Example 20]", "IC50": 31}, {"molecule": "C=CC(=O)N1CCN(C(=O)c2c(C)nc(CNc3n[nH]c4cc(Cl)c(C(C)(C)C)cc34)n2C)CC1", "note": "[US12065430, Example 50]", "IC50": 4280}, {"molecule": "C=CC(=O)N1C[C@@H](CN(C)C)[C@@H](NC(=O)c2c(C)nc(CNc3n[nH]c4cc(Cl)c(C(C)(C)C)cc34)n2C)C1", "note": "[US12065430, Example 68]", "IC50": 99}, {"molecule": "C=CC(=O)N1CC(NC(=O)c2c(Cl)nc(CNc3n[nH]c4cc(Cl)c(C(C)(C)C)cc34)n2CC(F)F)C1", "note": "[US12065430, Example 100]", "IC50": 14}, {"molecule": "C=CC(=O)N1CC(NC(=O)c2sc(CNc3n[nH]c4cc(Cl)c(C(C)(C)C)cc34)nc2C)C1", "note": "[US12065430, Example 2]", "IC50": 365}, {"molecule": "C=CC(=O)N1CC(NC(=O)c2c(C)nc(CNc3n[nH]c4cc(Cl)c(C(C)(C)C)cc34)n2CCCC)C1", "note": "[US12065430, Example 18]", "IC50": 12}, {"molecule": "C=CC(=O)N1CC(NC(=O)c2c(C)nc(CNc3n[nH]c4cc(Cl)c(C(C)(C)C)cc34)n2C(C)(C)C)C1", "note": "[US12065430, Example 24]", "IC50": 35}, {"molecule": "C=CC(=O)N1C[C@H](NC(=O)c2c(F)nc(CNc3n[nH]c4cc(Cl)c(C(C)(C)C)cc34)n2C)[C@@H](F)C1", "note": "[US12065430, Example 75]", "IC50": 16}, {"molecule": "C=CS(=O)(=O)N1CC(NC(=O)c2c(C)nc(CNc3n[nH]c4cc(Cl)c(C(C)(C)C)cc34)n2C(C)C)C1", "note": "[US12065430, Example 86]", "IC50": 58}, {"molecule": "C=CC(=O)N1CC(NC(=O)c2c(Cl)nc(CNc3n[nH]c4cc(Cl)c(C5(C(F)(F)F)CC5)cc34)n2C(C)C)C1", "note": "[US12065430, Example 44]", "IC50": 180}, {"molecule": "C=CC(=O)N1C[C@@H](CC#N)[C@@H](NC(=O)c2c(C)nc(CNc3n[nH]c4cc(Cl)c(C(C)(C)C)cc34)n2C)C1", "note": "[US12065430, Example 65]", "IC50": 19}, {"molecule": "C=CC(=O)N1CC(NC(=O)c2c(Cl)nc(CNc3n[nH]c4cc(Cl)c(C(C)(C)C)cc34)n2C2CCCN(C)C2)C1", "note": "(stereo not given) [US12065430, Example 118]", "IC50": 5}, {"molecule": "C=CC(=O)N1CC(NC(=O)c2c(C(F)(F)F)nc(CNc3n[nH]c4cc(Cl)c(C(C)(C)C)cc34)n2C(C)C)C1", "note": "[US12065430, Example 32]", "IC50": 50}, {"molecule": "C=CC(=O)N1CC(NC(=O)c2c(Cl)nc(CNc3n[nH]c4cc(Cl)c(C(C)(C)C)cc34)n2C2CCCN(CC(F)F)C2)C1", "note": "(stereo not given) [US12065430, Example 117]", "IC50": 9}, {"molecule": "C=CC(=O)N(C)C1CN(C(=O)c2c(C)nc(CNc3n[nH]c4cc(Cl)c(C(C)(C)C)cc34)n2C)C1", "note": "[US12065430, Example 51]", "IC50": 42}, {"molecule": "C=CC(=O)N1CC(NC(=O)c2c(Cl)nc(CNc3n[nH]c4cc(Cl)c(C(C)(C)C)cc34)n2CC2CCCC2)C1", "note": "[US12065430, Example 110]", "IC50": 9}, {"molecule": "C=CC(=O)N1CC(NC(=O)c2c(C)nc(CNc3n[nH]c4cc(Cl)c(C(C)(C)C)cc34)n2C)C(F)(F)C1", "note": "(stereo not given) [US12065430, Example 53]", "IC50": 42}]}]}
